According to US20140308733A1, “METHOD FOR INDUCING GERMINATION OF SPORE FORMING BACTERIUM” (CALPIS CO., LTD., priority 2011, published 2014):

Key:
Type in all cases: cell-based
[1] = test system: Bacillus licheniformis (NBRC 12200); assay: Germination induction, change of turbidity (630 nm) of spore suspension; conditions: 300 ppm; for turbidity (630 nm): 37° C., 150 rpm
Protocol: (§1) It is possible to determine whether spores have germinated, after measuring an OD 630 value (turbidity at 630 nm) of the liquid culture, based on decrease in the value (Literature: Microbiology, (1950), 4, 3, 330-338). Briefly, bacterial cells after culturing are washed with distilled water and diluted with distilled water to OD 630=1.0, which is then mixed with an equal volume of a germination induction solution, and the turbidity at 630 nm is measured by a UV spectrophotometer at room temperature.
(§2) TS culture media (Difco, Trypticase Soy Broth) were inoculated respectively with 11 strains listed in Table 1 and cultured at 50° C. with respect to Geobacillus stearothermophilus NBRC13737 and Aeribacillus pallidus TK6004 (FERM BP-08597), and at 37° C. with respect to the other 9 strains, until respective colonies were established. Then with respect to each of 11 strains, a loop full of a single colony was scratched by a platinum loop and suspended in 500 μL of sterilized water. In 1000 g of water was dissolved 8.0 g of a nutrient agar culture medium (Difco, Nutrient Broth), followed by high pressure steam sterilization (121° C., 15 min) to prepare a plate medium. The nutrient agar culture medium was smeared with each 100 μL of the suspension and cultured at 37° C. for 3 days.
(§3) Then, bacterial cells were suspended using a platinum loop in 500 μL of sterilized water, and the bacterial suspension was subjected to a heat shock at 65° C. for 35 min. Each 100 μL of the heat-shocked bacterial suspension and a not-heat-shocked bacterial suspension were smeared on the TS culture media respectively and cultured at 50° C. or 37° C. for 1 day.
(§4) After confirming the spore formation, the bacterial cells were collected by a bacteria spreader, suspended in 10 mL of sterilized distilled water, and then centrifuged (8340×g, 4° C., 15 min). The supernatant was removed and thereafter the bacterial cells were washed twice with 10 mL of sterilized water. After washing, the bacterial cells were suspended in 5 mL of sterilized water, and the suspension was filtrated by sterilized Kimwipes. The filtrate was centrifuged (8340×g, 4° C., 15 min) to remove the supernatant, and the rest was adjusted to the turbidity (at 630 nm) of 1.0 with sterilized water.
(§5) After dissolving with stirring using a stirring rod with a propeller, filtration sterilization (0.45 μm filter) was conducted to prepare each 600 ppm-solution.
(§6) Five hundred (500) μL of each solution and 500 μL of each bacterial spore suspension were mixed. […] Defining the time point of mixing as the reaction initiation (0 min), and continuing shaking (150 rpm) at 37° C., the turbidity (630 nm) was measured at 10, 20, 30, 40, 50, 60, 90, 120, and 180 min after the reaction initiation.
(§7) Since the turbidity at 630 nm decreases by germination of spores, it has been known that the turbidity at 630 nm can be used to determine the germination rate.

[2] = test system: Bacillus licheniformis (NBRC 14206); assay: as above; conditions: 300 ppm; for turbidity (630 nm): 37° C., 150 rpm
Protocol: as §1, §2, §3, §4, §5, §6, §7

[3] = test system: Bacillus subtilis C-3102 (FERM BP-1096); assay: Influence of the concentration of germination inducer on turbidity change (Example 2); conditions: for turbidity (630 nm): 37° C., 150 rpm
Protocol: Next, 500 μL aliquots of bacterial suspension of Bacillus subtilis C-3102 (FERM BP-1096) used in Example 1 were mixed with 500 μL of ferulic acid, or vanillic acid solutions described above, and the mixtures were adjusted to ferulic acid (10 to 600 ppm), or vanillic acid (10 to 1800 ppm) concentrations set forth in Table 2. The concentrations of ferulic acid at the reaction initiation were 10, 100, 300, and 600 ppm, and the concentrations of vanillic acid at the reaction initiation were 10, 100, 300, 600, 1200, and 1800 ppm.
As same as Example 1, defining the time point of mixing the bacterial suspension with the solution of ferulic acid, or vanillic acid as the reaction initiation (0 min), and continuing shaking (150 rpm) at 37° C., the absorbance (630 nm) was measured at 10, 20, 30, 40, 50, 60, 90, 120, and 180 min after the reaction initiation.

[4] = 0 min after reaction initiation
[5] = 10 min after reaction initiation
[6] = 20 min after reaction initiation
[7] = 30 min after reaction initiation
[8] = 40 min after reaction initiation
[9] = 50 min after reaction initiation
[10] = 60 min after reaction initiation
[11] = 90 min after reaction initiation
[12] = 120 min after reaction initiation
[13] = 180 min after reaction initiation

COc1cc(C(=O)O)ccc1O [Vanillic acid, vanillic acid]
turbidity (630 nm) [1, 4]: 0.602
turbidity (630 nm) [1, 5]: 0.574
turbidity (630 nm) [1, 6]: 0.567
turbidity (630 nm) [1, 7]: 0.542
turbidity (630 nm) [1, 8]: 0.523
turbidity (630 nm) [1, 9]: 0.488
turbidity (630 nm) [1, 10]: 0.464
turbidity (630 nm) [1, 11]: 0.414
turbidity (630 nm) [1, 12]: 0.362
turbidity (630 nm) [1, 13]: 0.267
germination confirmed by turbidity decrease ([1]; up to 180 min): the turbidity decreased
turbidity (630 nm) [2, 4]: 0.583
turbidity (630 nm) [2, 5]: 0.573
turbidity (630 nm) [2, 6]: 0.563
turbidity (630 nm) [2, 7]: 0.553
turbidity (630 nm) [2, 8]: 0.537
turbidity (630 nm) [2, 9]: 0.526
turbidity (630 nm) [2, 10]: 0.503
turbidity (630 nm) [2, 11]: 0.470
turbidity (630 nm) [2, 12]: 0.453
turbidity (630 nm) [2, 13]: 0.414
germination confirmed by turbidity decrease ([2]; up to 180 min): the turbidity decreased
turbidity (630 nm) ([3]; vanillic acid 10 ppm, 0 min after reaction initiation): 0.590
turbidity (630 nm) ([3]; vanillic acid 10 ppm, 10 min after reaction initiation): 0.558
turbidity (630 nm) ([3]; vanillic acid 10 ppm, 20 min after reaction initiation): 0.548
turbidity (630 nm) ([3]; vanillic acid 10 ppm, 30 min after reaction initiation): 0.539
turbidity (630 nm) ([3]; vanillic acid 10 ppm, 40 min after reaction initiation): 0.527
turbidity (630 nm) ([3]; vanillic acid 10 ppm, 50 min after reaction initiation): 0.514
turbidity (630 nm) ([3]; vanillic acid 10 ppm, 60 min after reaction initiation): 0.497
turbidity (630 nm) ([3]; vanillic acid 10 ppm, 90 min after reaction initiation): 0.472
turbidity (630 nm) ([3]; vanillic acid 10 ppm, 120 min after reaction initiation): 0.437
turbidity (630 nm) ([3]; vanillic acid 10 ppm, 180 min after reaction initiation): 0.338
turbidity (630 nm) ([3]; vanillic acid 100 ppm, 0 min after reaction initiation): 0.584
turbidity (630 nm) ([3]; vanillic acid 100 ppm, 10 min after reaction initiation): 0.557
turbidity (630 nm) ([3]; vanillic acid 100 ppm, 20 min after reaction initiation): 0.553
turbidity (630 nm) ([3]; vanillic acid 100 ppm, 30 min after reaction initiation): 0.537
turbidity (630 nm) ([3]; vanillic acid 100 ppm, 40 min after reaction initiation): 0.526
turbidity (630 nm) ([3]; vanillic acid 100 ppm, 50 min after reaction initiation): 0.501
turbidity (630 nm) ([3]; vanillic acid 100 ppm, 60 min after reaction initiation): 0.491
turbidity (630 nm) ([3]; vanillic acid 100 ppm, 90 min after reaction initiation): 0.470
turbidity (630 nm) ([3]; vanillic acid 100 ppm, 120 min after reaction initiation): 0.433
turbidity (630 nm) ([3]; vanillic acid 100 ppm, 180 min after reaction initiation): 0.315
turbidity (630 nm) ([3]; vanillic acid 300 ppm, 0 min after reaction initiation): 0.572
turbidity (630 nm) ([3]; vanillic acid 300 ppm, 10 min after reaction initiation): 0.555
turbidity (630 nm) ([3]; vanillic acid 300 ppm, 20 min after reaction initiation): 0.543
turbidity (630 nm) ([3]; vanillic acid 300 ppm, 30 min after reaction initiation): 0.538
turbidity (630 nm) ([3]; vanillic acid 300 ppm, 40 min after reaction initiation): 0.526
turbidity (630 nm) ([3]; vanillic acid 300 ppm, 50 min after reaction initiation): 0.507
turbidity (630 nm) ([3]; vanillic acid 300 ppm, 60 min after reaction initiation): 0.501
turbidity (630 nm) ([3]; vanillic acid 300 ppm, 90 min after reaction initiation): 0.452
turbidity (630 nm) ([3]; vanillic acid 300 ppm, 120 min after reaction initiation): 0.381
turbidity (630 nm) ([3]; vanillic acid 300 ppm, 180 min after reaction initiation): 0.235
turbidity (630 nm) ([3]; vanillic acid 600 ppm, 0 min after reaction initiation): 0.566
turbidity (630 nm) ([3]; vanillic acid 600 ppm, 10 min after reaction initiation): 0.568
turbidity (630 nm) ([3]; vanillic acid 600 ppm, 20 min after reaction initiation): 0.561
turbidity (630 nm) ([3]; vanillic acid 600 ppm, 30 min after reaction initiation): 0.540
turbidity (630 nm) ([3]; vanillic acid 600 ppm, 40 min after reaction initiation): 0.512
turbidity (630 nm) ([3]; vanillic acid 600 ppm, 50 min after reaction initiation): 0.499
turbidity (630 nm) ([3]; vanillic acid 600 ppm, 60 min after reaction initiation): 0.488
turbidity (630 nm) ([3]; vanillic acid 600 ppm, 90 min after reaction initiation): 0.447
turbidity (630 nm) ([3]; vanillic acid 600 ppm, 120 min after reaction initiation): 0.390
turbidity (630 nm) ([3]; vanillic acid 600 ppm, 180 min after reaction initiation): 0.262
turbidity (630 nm) ([3]; vanillic acid 1200 ppm, 0 min after reaction initiation): 0.567
turbidity (630 nm) ([3]; vanillic acid 1200 ppm, 10 min after reaction initiation): 0.559
turbidity (630 nm) ([3]; vanillic acid 1200 ppm, 20 min after reaction initiation): 0.551
turbidity (630 nm) ([3]; vanillic acid 1200 ppm, 30 min after reaction initiation): 0.548
turbidity (630 nm) ([3]; vanillic acid 1200 ppm, 40 min after reaction initiation): 0.520
turbidity (630 nm) ([3]; vanillic acid 1200 ppm, 50 min after reaction initiation): 0.509
turbidity (630 nm) ([3]; vanillic acid 1200 ppm, 60 min after reaction initiation): 0.496
turbidity (630 nm) ([3]; vanillic acid 1200 ppm, 90 min after reaction initiation): 0.474
turbidity (630 nm) ([3]; vanillic acid 1200 ppm, 120 min after reaction initiation): 0.456
turbidity (630 nm) ([3]; vanillic acid 1200 ppm, 180 min after reaction initiation): 0.419
turbidity (630 nm) ([3]; vanillic acid 1800 ppm, 0 min after reaction initiation): 0.579
turbidity (630 nm) ([3]; vanillic acid 1800 ppm, 10 min after reaction initiation): 0.562
turbidity (630 nm) ([3]; vanillic acid 1800 ppm, 20 min after reaction initiation): 0.549
turbidity (630 nm) ([3]; vanillic acid 1800 ppm, 30 min after reaction initiation): 0.538
turbidity (630 nm) ([3]; vanillic acid 1800 ppm, 40 min after reaction initiation): 0.519
turbidity (630 nm) ([3]; vanillic acid 1800 ppm, 50 min after reaction initiation): 0.510
turbidity (630 nm) ([3]; vanillic acid 1800 ppm, 60 min after reaction initiation): 0.498
turbidity (630 nm) ([3]; vanillic acid 1800 ppm, 90 min after reaction initiation): 0.472
turbidity (630 nm) ([3]; vanillic acid 1800 ppm, 120 min after reaction initiation): 0.453
turbidity (630 nm) ([3]; vanillic acid 1800 ppm, 180 min after reaction initiation): 0.420
germination induction versus concentration ([3]; vanillic acid of 10 to 1800 ppm): germination was inducted at any concentration to the same extent
